Reference: patent publication US7399460B2, “Metal complexes derivatized with folate for use in diagnostic and therapeutic applications” (Bracco International B.V., priority 1998, dated 2008)

Legend:
[1] = target: T1, folate binding protein on the KB cells (Homo sapiens, UniProt P15328); assay: Binding of alpha and gamma isomers of ^99mTc-oxa-folate to KB cells at 4° C.; conditions: 30 min; for competition with native folate for folate binding protein on KB cells: plus 250-260 pmol cold native folate, 4° C. (FIG. 4, white bars); for binding to KB cells relative to that observed with 10 pmol of ^3H-folate: trace amounts (~0.5 μCi), 4° C., no cold folate (FIG. 4, dark bars)
T1 construct: host or cells: KB cells
Procedure: The ability of the alpha and gamma isomers of ^99mTc-oxa-folate to bind to KB cells was studied at 4° C. KB cells (˜5×10^5 cells/well) were seeded into 35-mm wells and incubated for 48 hours as described in example 17 above. The alpha and gamma isomers of ^99mTc-oxa-folate, were prepared and purified as described in examples 14 and 16. The cells were then cooled to 4° C. for 30 min and incubated with the following mixtures for 30 min at 4° C.: • 1. 10 pmol of ^3H-folate • 2. 10 pmol of ^3H-folate and 250 pmol of native folate • 3. […] Trace amounts (˜0.5 μCi) of ^99mTc-Oxa-γ-folate • 6. Trace amounts (˜0.5 μCi) of ^99mTc-Oxa-γ-folate and 260 pmol of native folate
(§1) Following the incubation period, the cells were washed 3 times with ice-cold Tris-buffered saline. The cells were then stripped from the plates using 1.0 mL of water. Aliquots of the water/cell mixture were assayed for the respective radioisotopes and for cellular protein (to determine the number of KB cells present in each well). The radioassay data were used to calculate the % of radiolabeled compound bound to the cells in the absence and presence of unlabeled native folate. Data in FIG. 4 are presented as the percentage bound, relative to the % bound in the control wells containing 10 pmol of ^3H-folate.

cell surface FBP = cell surface FBP (Homo sapiens, UniProt P15328); conditions: in the presence of an equimolar amount of conjugate; cited from earlier work
MA104 cells = conditions: cited from earlier work
JAR tumors = assay: Biodistribution at MRI dose level in nude mice with subcutaneous JAR tumors; conditions: 60 min, 79.2 μmol/kg dose
Procedure: Biodistribution studies were performed using female nu/nu mice implanted with subcutaneous JAR tumors using the general procedures described in the example above. Animals were sacrificed 60 min post IV injection of an “MRI” dose level (0.1 mmol/kg) of ^153Gd/Gd-DO3A-APA-(α)-folate, ^153Gd/Gd-DO3A-APA-(γ)-folate or Bis(^153Gd/Gd-DO3A-APA)folate and selected organs were removed, weighed, and assayed for radioactivity, in order to determine the % injected dose/g-tissue (% ID/g) in the tumors.

JAR cells [2] = target: T2, JAR cells (Homo sapiens, UniProt P15328); assay: In vitro exchange study with cold native folate in the medium, JAR cells; assay type: cell-based
T2 construct: host or cells: JAR cells
Procedure: (§2) Exchange studies were performed to examine the effect of native folate on the radioactivity levels in KB or JAR cells that had been pre-loaded with a saturating level of radiolabeled Gd-folates or native folate in vitro. ^3H-folate, ^153Gd-DO3A-APA-(γ)-folate or ^153Gd-DO3A-APA-(α)-folate (250 pmol) was incubated with KB or JAR cells as described in Example 18. At the end of the 30-min incubation period, these ^153Gd-folate or ^3H-folate-loaded cells were washed five times with ice-cold media containing 250 nM cold, native folate and were then incubated at 37° C. for 24 hours with media that contained 250 pmol of cold folate. At predetermined intervals during this time, the incubation medium was removed and replaced with fresh medium at 37° C. The radioactivity present in each aliquot of the incubation medium was used to determine the rate at which radioactivity from the ^3H-folate, ^153Gd-DO3A-APA-(γ)-folate or ^153Gd-DO3A-APA-(α)-folate washed out of the cells. At the end of the study, the cells were suspended in one ml of water and assayed for radioactivity and protein content.

KB cells = assay: In vitro exchange study with cold native folate in the medium, KB cells; assay type: cell-based, human; conditions: 24 hours, 37° C., medium with cold native folate (250 nM), FIG. 4A
Procedure: as §2

[3] = target: T1, folate binding protein on the KB cells; assay: Binding of ^3H-folate and alpha or gamma isomer of ^153Gd-DO3A-APA-folate to KB cells at 4° C. with and without excess folate; conditions: 30 min
Procedure: In a second experiment, the ability of the alpha and gamma isomers of ^153Gd-DO3A-APA-folate to bind to KB cells at 4° C. was studied. KB cells (˜5×10^5 cells/well) were seeded into 35-mm wells and incubated for 48 hours as described above. The cells were then cooled to 4° C. for 30 min and incubated with the following mixtures for 30 min at 4° C.: • 1. 10 pmol of ^3H-folate • 2. 10 pmol of ^3H-folate and 250 pmol of native folate • 3. 10 pmol of ^153Gd/Gd(DO3A-APA-α-folate) • 4. 10 pmol of ^153Gd/Gd(DO3A-APA-α-folate) and 250 pmol of native folate • 5. 10 pmol of ^153Gd/Gd(DO3A-APA-γ-folate) • 6. 10 pmol of ^153Gd/Gd(DO3A-APA-γ-folate) and 250 pmol of native folate
as §1, with “ice-old” for “ice-cold”, “2” for “4”

JAR cells [4] = target: T2, JAR cells; assay: Binding of ^153Gd-folates or ^3H folate to JAR cells at 37° C.
Procedure: (§3) Cell culture: KB cells (a human nasopharyngeal epidermal carcinoma cell line) and JAR cells (a human choriocarcinoma cell line) were obtained from ATCC (American Type Culture Collection). Both cell lines are reported to overexpress transcripts encoding folate binding protein. […] The media for each cell line was supplemented with 10% defined fetal calf serum (HyClone, Inc.) Monolayers were cultured at 37° C. in a humidified atmosphere containing 5% CO2.
(§4) Forty-eight hours prior to each experiment, 5×10^5 cells were seeded into 35 mm culture dishes and allowed to grow for 2 days in folate-depleted media. The cells were then washed with Tris-buffered saline (TBS=150 mM NaCl, 50 mM Tris, pH 7.5) and 1 mL of fresh media containing 10 pmol ^153Gd-DO3A-APA-folate (α or γ isomer) and 0-900 pmol of cold native folate per sample was added. Control experiments were performed using 10 pmol of ^3H folate (Amersham International) and 0-900 pmol of cold native folate. The cells were incubated for 30 min at 37° C. They were then washed three times with ice cold TBS and suspended in one ml of water. Cell associated radioactivity was determined by gamma (^153Gd-folate) or scintillation counting (^3H-folate) of a 500 μl aliquot of this suspension; 100 μl was used in the BCA protein assay (Pierce catalog # 23225), which was used to determine and normalize for cellular protein content.

[5] = target: T3, folate binding protein on KB cells (Homo sapiens, UniProt P15328); assay: Binding of ^153Gd-DO3A-APA-folate (α or γ isomer) or ^3H folate to KB cells at 37° C. in competition with cold native folate; conditions: 10 pmol labelled compound, 0-900 pmol cold native folate, 30 min, FIG. 1
T3 construct: host or cells: KB cells
Procedure: as §3, §4

T2 sequence (P15328 25-234): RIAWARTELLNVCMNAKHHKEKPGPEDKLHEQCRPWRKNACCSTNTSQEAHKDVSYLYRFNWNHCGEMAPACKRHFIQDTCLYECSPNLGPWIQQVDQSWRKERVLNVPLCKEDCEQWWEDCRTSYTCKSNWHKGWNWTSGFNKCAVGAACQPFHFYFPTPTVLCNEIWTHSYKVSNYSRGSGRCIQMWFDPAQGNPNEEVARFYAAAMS
T1 sequence (P15328 25-234): as above
Sequence of cell surface FBP (P15328 25-234): as above
T3 sequence (P15328 25-234): as above

What does the source list for “99m-Technetium complex of 12-(N-Pteroyl-α-L-glutamyl)-3,3,9,9-tetramethyl-5-oxa-4,8-diaza-2,10-dodecanedione dioxime [^99mTc-Oxa-α-folate]”?
competition with native folate for folate binding protein on KB cells [1]: do compete for folate binding protein on the KB cells; binding to KB cells relative to that observed with 10 pmol of ^3H-folate [1]: 140%

Which results are given for “99m-Technetium complex of 12-(N-Pteroyl-γ-L-glutamyl)-3,3,9,9-tetramethyl-5-oxa-4,8-diaza-2,10-dodecanedione dioxime [^99mTc-Oxa-γ-folate]”?
competition with native folate for folate binding protein on KB cells [1]: do compete for folate binding protein on the KB cells; binding to KB cells relative to that observed with 10 pmol of ^3H-folate [1]: to the same extent

For `CC(=O)N(O)CCCCCNC(=O)CCC(=O)N(O)CCCCCNC(=O)CCC(=O)N(O)CCCCCNC(=O)C(CCC(=O)O)NC(=O)c1ccc(NCc2cnc3nc(N)[nH]c(=O)c3n2)cc1` (single isomer, unassigned) [DF-folate (α) isomer], which “decrease in bound ^3H folic acid” value (cell surface FBP) is on record?
The value was “no ability to compete”.

With `CC(=O)N(O)CCCCCNC(=O)CCC(=O)N(O)CCCCCNC(=O)CCC(=O)N(O)CCCCCNC(=O)CCC(NC(=O)c1ccc(NCc2cnc3nc(N)[nH]c(=O)c3n2)cc1)C(=O)O` (stereo not drawn) [DF-folate (γ) conjugate] as the compound, how does the “decrease in bound ^3H folic acid” value (cell surface FBP) read?
Its value is 50%.

With `CC(C)(C)OC(=O)NCCCC(CCCNC(=O)OC(C)(C)C)(CCCNC(=O)OC(C)(C)C)NC(=O)CCC(=O)NC(CCC(=O)OCc1ccccc1)(CCC(=O)OCc1ccccc1)CCC(=O)OCc1ccccc1` [Example 11, N-[1,5-Bis(benzyloxycarbonyl)-3-[2-(benzyloxycarbony)ethyl)]-3-pentyl]-N′-[1,7-bis-(t-butoxycarbony)amino-[4-(3-(t-butyloxycarbonyl)propyl]-4-heptyl]butanedioic diamide] as the compound, how does the melting point read?
Its melting point is 95 to 96 °C.

With `Nc1nc2ncc(CNc3ccc(C(=O)N[C@@H](CCC(=O)O)C(=O)O)cc3)nc2c(=O)[nH]1` [folic acid] as the compound, how does the “binding by MA104 cells” value (MA104 cells) read?
Its value is 1-2 pmol folic acid/10^6 cells.

For Bis(^153Gd-DO3A-APA)-folate, which “Tumor % ID/g” value (JAR tumors) is on record?
The value was 1.48 (0.12) % ID/g.

What about the “[Gd] in tumor tissue” value (JAR tumors; calculated from % ID/g) of the same compound?
Its value is 55 (4) μM.

Which “radioactivity from loaded JAR cells found in the medium” value (JAR cells [2]; after 6 hours, 37° C., medium with cold native folate, FIG. 4B) does the source give for Gd-DO3A-APA-(γ)-folate here?
The value was 30%.

What about the “amount of compound washed from the JAR cells” value (JAR cells [2]; at 24 hours) of the same compound?
Its value is “similar”.

What about the “radioactivity lost from loaded KB cells to the incubation medium” value (KB cells) of the same compound?
The value was 20%.

Which results are given for ^153Gd-DO3A-APA-(γ)-folate?
competition with native folate for folate binding protein on KB cells ([3]; 10 pmol plus 250 pmol cold native folate, 4° C. (FIG. 2, white bars)): do compete for folate binding protein on the KB cells; binding to KB cells compared with 10 pmol of ^3H-folate ([3]; 10 pmol, 4° C., no cold folate (FIG. 2, dark bars)): to the same extent; ability to compete with cold native folate for binding to the JAR cells (JAR cells [4]; 10 pmol, 0-900 pmol cold folate, 30 min, 37° C.): equally effective; binding to JAR cells compared with the radiolabeled control (^3H-folate) (JAR cells [4]; comparable test conditions, FIG. 1A): about half as effective; amount bound to the KB cells [5]: No significant differences
